According to ChEMBL document CHEMBL6074630, “Discovery of potent LRRK2 inhibitors by ensemble virtual screening strategy and bioactivity evaluation” (Eur J Med Chem, 2024):
Activity calls are given as the source filed them. The calls are words filed in the database; no cut-off is given here.

Experiments:
[1] = tested on: Leucine-rich repeat serine/threonine-protein kinase 2 (Homo sapiens), Q5S007 [G2019S]; experiment: Inhibition of LRRK2 G2019S mutant (unknown origin) using LRRKtide as substrate at 10 uM incubated for 60 mins in presence of ATP by ADP-Glo reagent based assay relative to control
Sequence of Leucine-rich repeat serine/threonine-protein kinase 2 (Homo sapiens), Q5S007 [G2019S] (Q5S007 whole entry G2019S): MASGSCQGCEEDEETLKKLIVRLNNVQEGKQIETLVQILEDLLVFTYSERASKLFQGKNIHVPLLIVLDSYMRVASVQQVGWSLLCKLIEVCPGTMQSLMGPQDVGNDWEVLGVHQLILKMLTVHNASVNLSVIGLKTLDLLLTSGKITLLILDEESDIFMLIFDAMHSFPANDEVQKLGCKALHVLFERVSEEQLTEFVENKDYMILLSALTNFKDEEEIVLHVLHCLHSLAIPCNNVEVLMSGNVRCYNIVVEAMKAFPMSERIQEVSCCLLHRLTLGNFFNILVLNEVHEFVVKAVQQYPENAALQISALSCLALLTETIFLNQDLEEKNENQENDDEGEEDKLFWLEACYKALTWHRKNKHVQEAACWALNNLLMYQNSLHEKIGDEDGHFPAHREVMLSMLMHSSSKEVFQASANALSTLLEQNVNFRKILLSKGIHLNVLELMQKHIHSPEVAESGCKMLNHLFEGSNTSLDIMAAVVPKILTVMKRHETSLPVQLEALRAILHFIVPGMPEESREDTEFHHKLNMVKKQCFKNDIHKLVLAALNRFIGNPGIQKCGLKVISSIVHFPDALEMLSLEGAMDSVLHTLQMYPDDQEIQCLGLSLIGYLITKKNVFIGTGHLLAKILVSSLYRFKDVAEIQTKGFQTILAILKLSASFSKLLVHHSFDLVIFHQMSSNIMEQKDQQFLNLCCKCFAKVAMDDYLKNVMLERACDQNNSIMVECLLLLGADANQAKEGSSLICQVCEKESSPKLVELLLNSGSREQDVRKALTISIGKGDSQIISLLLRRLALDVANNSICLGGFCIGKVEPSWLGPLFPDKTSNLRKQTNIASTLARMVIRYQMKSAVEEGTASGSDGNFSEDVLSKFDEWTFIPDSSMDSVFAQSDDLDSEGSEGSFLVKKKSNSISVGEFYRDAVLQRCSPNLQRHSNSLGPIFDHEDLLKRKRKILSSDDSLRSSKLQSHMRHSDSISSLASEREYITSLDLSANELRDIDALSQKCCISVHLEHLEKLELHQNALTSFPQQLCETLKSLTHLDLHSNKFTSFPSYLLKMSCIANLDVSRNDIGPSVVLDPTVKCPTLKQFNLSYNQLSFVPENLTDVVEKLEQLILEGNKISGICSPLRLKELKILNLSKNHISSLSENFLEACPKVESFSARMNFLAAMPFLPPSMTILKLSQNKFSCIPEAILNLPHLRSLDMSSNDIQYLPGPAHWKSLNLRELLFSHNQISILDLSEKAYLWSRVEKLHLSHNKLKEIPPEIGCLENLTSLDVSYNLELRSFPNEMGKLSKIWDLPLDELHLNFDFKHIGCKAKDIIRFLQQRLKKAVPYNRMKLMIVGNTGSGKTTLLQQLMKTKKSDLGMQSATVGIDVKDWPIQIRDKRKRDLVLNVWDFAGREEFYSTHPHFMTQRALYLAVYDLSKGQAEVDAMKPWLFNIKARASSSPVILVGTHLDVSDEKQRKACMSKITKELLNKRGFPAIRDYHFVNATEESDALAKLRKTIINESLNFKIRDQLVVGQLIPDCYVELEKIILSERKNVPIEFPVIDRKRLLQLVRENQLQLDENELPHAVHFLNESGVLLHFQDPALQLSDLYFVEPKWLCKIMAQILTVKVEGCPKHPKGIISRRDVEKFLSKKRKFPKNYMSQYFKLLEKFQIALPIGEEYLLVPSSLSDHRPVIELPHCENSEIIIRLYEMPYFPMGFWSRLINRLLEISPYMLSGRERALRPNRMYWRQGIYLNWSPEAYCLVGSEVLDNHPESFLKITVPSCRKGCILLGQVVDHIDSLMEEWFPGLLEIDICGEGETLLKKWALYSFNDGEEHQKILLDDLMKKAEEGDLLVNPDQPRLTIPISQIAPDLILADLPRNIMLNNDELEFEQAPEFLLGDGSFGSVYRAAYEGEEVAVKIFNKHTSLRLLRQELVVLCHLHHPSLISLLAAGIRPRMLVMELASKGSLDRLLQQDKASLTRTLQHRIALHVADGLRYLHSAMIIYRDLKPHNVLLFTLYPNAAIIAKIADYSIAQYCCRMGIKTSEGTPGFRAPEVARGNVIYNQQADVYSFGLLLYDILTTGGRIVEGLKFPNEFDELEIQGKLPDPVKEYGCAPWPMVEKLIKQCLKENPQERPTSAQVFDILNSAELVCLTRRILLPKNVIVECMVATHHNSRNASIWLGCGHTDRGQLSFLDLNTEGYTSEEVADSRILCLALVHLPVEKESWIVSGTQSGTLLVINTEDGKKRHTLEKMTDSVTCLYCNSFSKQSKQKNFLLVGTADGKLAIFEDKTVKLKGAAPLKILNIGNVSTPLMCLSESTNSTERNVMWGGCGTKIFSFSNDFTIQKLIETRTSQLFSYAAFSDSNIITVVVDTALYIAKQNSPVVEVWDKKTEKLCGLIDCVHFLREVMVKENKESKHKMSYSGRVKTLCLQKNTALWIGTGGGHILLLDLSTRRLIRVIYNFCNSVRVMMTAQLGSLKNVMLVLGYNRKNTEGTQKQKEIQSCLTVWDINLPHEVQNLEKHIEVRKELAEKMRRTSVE

[2] = target: T1, Leucine-rich repeat serine/threonine-protein kinase 2 (Homo sapiens, UniProt Q5S007); experiment: Inhibition of wild type LRRK2 (unknown origin) using LRRKtide as substrate at 10 uM incubated for 60 mins in presence of ATP by ADP-Glo reagent based assay relative to control
T1 sequence (Q5S007 whole entry): as the sequence (Q5S007 whole entry G2019S) above, with S2019G counted along it

[3] = target: T1, Leucine-rich repeat serine/threonine-protein kinase 2; experiment: Inhibition of wild type LRRK2 (unknown origin) using LRRKtide as substrate incubated for 60 mins in presence of ATP by ADP-Glo reagent based assay
[4] = target: T2, Leucine-rich repeat serine/threonine-protein kinase 2 (Homo sapiens, UniProt Q5S007, G2019S); experiment: Inhibition of LRRK2 G2019S mutant (unknown origin) using LRRKtide as substrate incubated for 60 mins in presence of ATP by ADP-Glo reagent based assay
T2 sequence (Q5S007 whole entry G2019S): as the sequence (Q5S007 whole entry G2019S) above

[5] = tested on: Leucine-rich repeat serine/threonine-protein kinase 2 (Homo sapiens), Q5S007 [G2019S]; experiment: (§1) Inhibition of 3xFlag-Puro-tagged human LRRK2 G2019S mutant phosphorylation at Ser935 residue overexpressed in HEK293T cells incubated for 24 hrs by SDS-PAGE analysis; assay type: cell-based
[6] = target: T2, Leucine-rich repeat serine/threonine-protein kinase 2; experiment: as §1; assay type: cell-based
Danio rerio [7] = species on record: Danio rerio; experiment: Neuroprotective activity against 6-OHDA-induced neurotoxicity in wild type Zebrafish AB larvae assessed as increase of total movement distance at 12.5 uM treated with compound from 3 days post fertilization and measured after 4 days; assay type: functional, organism-based; settings: time 4.0 day
[8] = Toxicity in wild type Zebrafish AB larvae administered from 3 days post fertilization and measured after 96 hrs; design: species or system Danio rerio; settings: in vivo
[9] = target: T1, Leucine-rich repeat serine/threonine-protein kinase 2; experiment: Inhibition of 3xFlag-Puro-tagged wildtype human LRRK2 phosphorylation at Ser935 residue overexpressed in HEK293T cells incubated for 24 hrs by SDS-PAGE analysis; assay type: cell-based
[10] = Toxicity in wild type Zebrafish AB larvae assessed as effect on survival rate at 12.5 to 100 uM administered from 3 days post fertilization and measured after 96 hrs; design: species or system Danio rerio; settings: in vivo, dose 12.5-100 µM
Danio rerio [11] = species on record: Danio rerio; experiment: Neuroprotective activity against 6-OHDA-induced neurotoxicity in wild type Zebrafish AB larvae assessed as increase in travel distance at high velocity at 12.5 uM treated with compound from 3 days post fertilization and measured after 4 days; assay type: functional, organism-based; settings: time 4.0 day
Danio rerio [12] = species on record: Danio rerio; experiment: Neuroprotective activity against 6-OHDA-induced neurotoxicity in wild type Zebrafish AB larvae assessed as increase in total swimming distance at 150 uM treated with compound from 3 days post fertilization and measured after 4 days; assay type: functional, organism-based; settings: time 4.0 day
Danio rerio [13] = species on record: Danio rerio; experiment: Neuroprotective activity against 6-OHDA-induced neurotoxicity in wild type Zebrafish AB larvae assessed as improvement in swimming behavior at 150 uM treated with compound from 3 days post fertilization and measured after 4 days; assay type: functional, organism-based; settings: time 4.0 day
[14] = target: T1, Leucine-rich repeat serine/threonine-protein kinase 2; experiment: Inhibition of 3xFlag-Puro-tagged wildtype human LRRK2 phosphorylation at Ser935 residue overexpressed in HEK293T cells at 10 uM incubated for 24 hrs by SDS-PAGE analysis relative to control; assay type: cell-based
[15] = tested on: Leucine-rich repeat serine/threonine-protein kinase 2 (Homo sapiens), Q5S007 [G2019S]; experiment: Inhibition of 3xFlag-Puro-tagged human LRRK2 G2019S mutant phosphorylation at Ser935 residue overexpressed in HEK293T cells at 10 uM incubated for 24 hrs by SDS-PAGE analysis relative to control; assay type: cell-based
Danio rerio [16] = species on record: Danio rerio; experiment: Neuroprotective activity against 6-OHDA-induced neurotoxicity in wild type Zebrafish larvae AB assessed as increase in travel distance at high velocity at 12.5 to 50 uM treated with compound from 3 days post fertilization and measured after 4 days; assay type: functional, organism-based; settings: dose 12.5-50 µM, time 4.0 day
Danio rerio [17] = species on record: Danio rerio; experiment: Neuroprotective activity against 6-OHDA-induced neurotoxicity in wild type Zebrafish AB larvae assessed as increase in travel distance at high velocity at 50 uM treated with compound from 3 days post fertilization and measured after 4 days; assay type: functional, organism-based; settings: time 4.0 day
Danio rerio [18] = species on record: Danio rerio; experiment: Neuroprotective activity against 6-OHDA-induced neurotoxicity in wild type Zebrafish AB larvae assessed as increase in travel distance at high velocity treated with compound from 3 days post fertilization and measured after 4 days; assay type: functional, organism-based; settings: dose 12.5-50 µM, time 4.0 day

| Structure (SMILES) | inhibition [1] [%] | inhibition [2] [%] | IC50 [3] [nM] | IC50 [4] [nM] | inhibition [5] | IC50 [6] [nM] | LC50 at 96 h [8] [nM] | IC50 [9] [nM] | inhibition [9] | Activity [10] | inhibition [14] [%] | inhibition [15] [%] | also measured |
| --- | --- | --- | --- | --- | --- | --- | --- | --- | --- | --- | --- | --- | --- |
| Cn1cccc1-c1cc(C(=O)N/N=C2/C(=O)Nc3ccccc32)[nH]n1 | > 50 | > 50 | 39400 | 3630 |  |  |  |  |  |  |  |  |  |
| c1ccc2c(c1)ncn1nc(-c3cc(C4CC4)[nH]n3)nc21 | > 50 | > 50 | 7150 | 5590 |  |  |  |  |  |  |  |  |  |
| COc1cc(C(=O)N2CCC(N3CCN(C)CC3)CC2)ccc1Nc1ncc2c(n1)N(C)c1ccccc1C(=O)N2C |  |  | 3.1 |  | Dose-dependent-effect | 22.1 | > 100000 | 17 | Dose-dependent-effect | Toxic |  |  | Activity (Danio rerio [7]): Active; Activity (Danio rerio [11]): Active |
| N[C@@H](Cc1ccc(O)c(O)c1)C(=O)O |  |  |  |  |  |  |  |  |  |  |  |  | Activity (Danio rerio [12]): Active; Activity (Danio rerio [13]): Active |
| O=C(Nc1n[nH]c2ccccc12)c1cc(-c2cccnc2)n[nH]1 | > 80 | > 80 | 803 | 556 | Dose-dependent-effect | 605 |  | 1190 | Dose-dependent-effect |  | > 80 | > 60 |  |
| Fc1ccc(-c2n[nH]cc2/C=N\Nc2nc3ccccc3[nH]2)cc1 | > 50 | > 50 | 3120 | 4920 |  |  |  |  |  |  |  |  |  |
| Cl.c1cc(OCCN2CCCCC2)cc(-c2n[nH]c3ccc(-c4nc[nH]n4)cc23)c1 |  |  | 9.6 | 22.4 |  | 49.1 | > 100000 | 27.1 |  | Toxic |  |  |  |
| CNC(=O)c1sc2ccc(NC(=O)c3n[nH]c4ccccc34)cc2c1OC | > 50 | > 50 | 50300 | 2090 |  |  |  |  |  |  |  |  |  |
| c1cc(OCCN2CCCCC2)cc(-c2n[nH]c3ccc(-c4nnc[nH]4)cc23)c1 | > 80 | > 80 |  |  | Dose-dependent-effect |  |  |  | Dose-dependent-effect |  | > 80 | > 60 | Activity (Danio rerio [16]): inactive |
| CC[C@](C)(Nc1ccnc(-c2c[nH]c3ncccc23)n1)C(=O)NCC(F)(F)F | > 80 | > 80 | 1340 | 218 | Dose-dependent-effect | 337 | > 100000 | 1670 | Dose-dependent-effect | Toxic | > 80 | > 60 | Activity (Danio rerio [17]): Active; Activity (Danio rerio [18]): Dose-dependent-effect |
